Measurements reported in patent US9828412B2, “Short peptide targeting EPS8 binding with EGFR and use thereof” (SOUTHERN MEDICAL UNIVERSITY, priority 2014, dated 2017).
Where two headings read alike, the source gives them in different places. No end group written: not given here.

Experiments:
[1] = test system: EPS8 overexpression tumor cell line MCF-7 (human breast cancer cell line)
Description: EPS8 overexpression tumor cell line MCF-7 (human breast cancer cell line, purchased from ATCC) were selected as target cells, and seeded in 96-well plates at 10,000 cells/well and 100 μL/well. The medium culture was Dulbecco's Modified Eagle's Medium (DMEM) containing 10% FBS. 8 hours later, short peptide P01 was added at different final concentration of 0, 100, 300 and 500 μg/mL. MCF-7 cells were incubated with short peptide P01 for 24 hours, 48 hours and 72 hours. Then OD values at wavelength of 490 nm were detected by MTS assay, and MCF-7 cell viability was calculated.
MCF-7 cell viability=[(ODexperimental-ODblank control)]/[(ODnegative control-ODblank control)]×100%.

[2] = test system: EPS8 overexpression tumor cell line KG1α (human acute myeloid leukemia cell line)
Description: EPS8 overexpression tumor cell line KG1α (human acute myeloid leukemia cell line, purchased from the American Type Culture Collection, ATCC) were selected as target cells, and seeded in 96-well plates at 10,000 cells/well and 100 μL/well. The medium culture was Roswell Park Memorial Institute (RPMI)-1640 containing 10% fetal bovine serum (FBS). […] Then OD values at the wavelength of 490 nm were detected by MTS assay, and KG1α cell viability was calculated.
KG1α cell viability=[(ODexperimental-ODblank control)]/[(ODnegative control-ODblank control)]×100%.

## RKKNKPPPPKK-NH2 [P01, N′-Arg-Lys-Lys-Asn-Lys-Pro-Pro-Pro-Pro-Lys-Lys-NH2-C′]
[1]; 24 h
  IC50 (MCF-7 cell viability): 594.2 µg/mL
[1]; 48 h
  IC50 (MCF-7 cell viability): 374.9 µg/mL
[1]; 72 h
  IC50 (MCF-7 cell viability): 304.7 µg/mL
[2]; 24 h
  IC50 (KG1α cell viability): 888.5 µg/mL
[2]; 48 h
  IC50 (KG1α cell viability): 413.9 µg/mL
[2]; 72 h
  IC50 (KG1α cell viability): 335.6 µg/mL
